{"source": "patent US9732076B2", "about": "“Solid oral dosage formulation of HCV inhibitor in the amorphous state” (Boehringer Ingelheim International GmbH, priority 2013, dated 2017)", "experiment": "Ames test / genotoxicity of degradation product"}
{"smiles": "C=C[C@@H]1C[C@]1(N)C(=O)O", "note": "[Compound X]", "values": [{"measurement": "Ames result / genotoxicity", "result": "Ames positive"}]}
